Where two headings read alike, the source gives them in different places.
Assays:
[1] = target: T1, h-TGR5 (Homo sapiens, UniProt Q8TDU6); test: TGR5 cAMP Assay using Cisbio cAMP Dynamic2 htrf kit (hTGR5CRE-luc HEK 293 cells); format: cell-based
T1 construct: expressed in transfected cells
T1 sequence (Q8TDU6 1-330): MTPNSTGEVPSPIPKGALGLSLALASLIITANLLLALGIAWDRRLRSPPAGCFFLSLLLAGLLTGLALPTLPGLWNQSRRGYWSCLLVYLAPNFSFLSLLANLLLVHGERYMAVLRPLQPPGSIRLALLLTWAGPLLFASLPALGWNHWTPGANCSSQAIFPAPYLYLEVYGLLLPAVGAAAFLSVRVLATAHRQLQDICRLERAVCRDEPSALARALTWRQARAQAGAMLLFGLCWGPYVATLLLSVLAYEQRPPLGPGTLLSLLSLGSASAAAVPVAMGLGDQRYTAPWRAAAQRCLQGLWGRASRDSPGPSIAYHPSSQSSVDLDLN
Summary of the method: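 […], 4000 hTGR5CRE-luc HEK 293 cells per well, with 0.5 mM IBMX and d2-cAMP, were incubated 30 min at room temperature with compounds in 8-point half-log series, in quadruplicate.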

[2] = target: T2, human TGR5 (h-TGR5) (Homo sapiens, UniProt Q8TDU6); test: TGR5/CRE-Luciferiase Assay (HEK 293 hTGR5/CRE-Luc cells); format: cell-based
T2 construct: expressed in transfected cells
T2 sequence (Q8TDU6 1-330): T1 sequence (Q8TDU6 1-330)
Summary of the method: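 HEK293 cells stably carrying hTGR5 and a CRE-luciferase reporter were exposed to serially diluted compounds (diluted in DMEM with 5% DMSO) for 6 h. Cells were then lysed in luciferase buffer, luminescence was read, and EC50 values were derived from dose-response curves.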

[3] = h-TGR5 cAMP EC50, Table 1, read-out: cAMP (EC50)
[4] = h-TGR5 CRE-Luc EC50, Table 1, read-out: CRE-Luc (EC50)
[5] = hTGR5CRE-luc HEK 293 cells, htrf cAMP, Table 2, read-out: h-TGR5 cAMP EC50 (cAMP)
[6] = HEK 293 hTGR5/CRE-Luc cells, 6 hours incubation, luciferase activity, Table 2, read-out: h-TGR5CRE-Luc EC50 (CRE-Luc)

| Compound | EC50 [1, 3] [nM] | EC50 [2, 4] [nM] | EC50 [1, 5] [nM] | EC50 [2, 6] [nM] |
| --- | --- | --- | --- | --- |
| CC(C)(c1ccc(Cl)c(Cl)c1)c1c(Cl)nc(SCc2ccc(-c3nnn[nH]3)c(Cl)c2)n1-c1ccc(F)cc1 [5-{2-chloro-4-[({4-chloro-5-[1-(3,4-dichlorophenyl)-1-methylethyl]-1-(4-fluorophenyl)-1H-imidazol-2-yl}thio)methyl]phenyl}-1H-tetrazole] | 1000 to 10000 | 100 to 1000 | – | – |
| CC(C)(c1ccc(Cl)c(Cl)c1)c1cnc(SCc2ccc(Cl)c(-c3nnn[nH]3)c2)n1-c1cccc(Cl)c1 [5-{2-chloro-5-[({1-(3-chlorophenyl)-5-[1-(3,4-dichlorophenyl)-1-methylethyl]-1H-imidazol-2-yl}thio)methyl]phenyl}-1H-tetrazole] | 100 to 1000 | 100 to 1000 | – | – |
| CC(C)(c1ccc(Cl)c(Cl)c1)c1cnc(SCC2CCN(c3nnn[nH]3)C2)n1-c1ccc(F)cc1 (centres unmarked) [5-{3-[({5-[1-(3,4-dichlorophenyl)-1-methylethyl]-1-(4-fluorophenyl)-1H-imidazol-2-yl}thio)methyl]pyrrolidin-1-yl}-1H-tetrazole] | 1000 to 10000 | 100 to 1000 | – | – |
| CC(C)(c1ccc(Cl)c(Cl)c1)c1cnc(SCc2ccc(-c3nnn[nH]3)cc2Cl)n1-c1ccc(F)cc1 [5-{3-chloro-4-[({5-[1-(3,4-dichlorophenyl)-1-methylethyl]-1-(4-fluorophenyl)-1H-imidazol-2-yl}thio)methyl]phenyl}-1H-tetrazole] | 100 to 1000 | 100 to 1000 | – | – |
| CC(C)(c1ccc(Cl)c(Cl)c1)c1cnc(SCc2cc(-c3nnn[nH]3)ccc2Cl)n1-c1ccc(F)cc1 [5-{4-chloro-3-[({5-[1-(3,4-dichlorophenyl)-1-methylethyl]-1-(4-fluorophenyl)-1H-imidazol-2-yl}thio)methyl]phenyl}-1H-tetrazole] | 100 to 1000 | 100 to 1000 | – | – |
| COc1ccc(Cc2cnc(SCc3ccc(F)cc3Cl)n2-c2ccc(F)cc2)cc1OC [5-{[3,4-bis(methyloxy)phenyl]methyl}-2-{[(2-chloro-4-fluorophenyl)methyl]thio}-1-(4-fluorophenyl)-1H-imidazole] | < 100 | < 100 | – | – |
| CC(C)(c1ccc2nccnc2c1)c1nnc(SCc2c(F)cccc2Cl)n1-c1ccc(F)cc1 [Example 45] | – | – | < 100 | < 100 |
| CC(C)(c1ccc2cccnc2c1)c1nnc(SCc2c(F)cccc2Cl)n1-c1ccc(F)cc1 [Example 47] | – | – | < 100 | < 100 |
| COc1cc(-n2c(SCc3ccc(Cl)c(-c4nnn[nH]4)c3)nnc2C(C)(C)c2ccc(Cl)c(OC)c2)ccc1F [Example 49] | – | – | 100 to 1000 | < 100 |

The remaining lines, values ahead:

| EC50 [1, 3] [nM] | EC50 [2, 4] [nM] | EC50 [1, 5] [nM] | EC50 [2, 6] [nM] | Compound |
| --- | --- | --- | --- | --- |
| < 100 | < 100 | – | – | COc1ccc(C(C)(C)c2cnc(SCc3cc(F)cc(Cl)c3)n2-c2ccc(F)cc2)cc1OC [5-{1-[3,4-bis(methyloxy)phenyl]-1-methylethyl}-2-{[(3-chloro-5-fluorophenyl)methyl]thio}-1-(4-fluorophenyl)-1H-imidazole] |
| < 100 | < 100 | – | – | COc1ccc(C(C)(C)c2c(Cl)nc(SCc3c(F)cccc3Cl)n2-c2ccc(F)cc2)cc1OC [5-{1-[3,4-bis(methyloxy)phenyl]-1-methylethyl}-4-chloro-2-{[(2-chloro-6-fluorophenyl)methyl]thio}-1-(4-fluorophenyl)-1H-imidazole] |
| 100 to 1000 | 100 to 1000 | – | – | CC(C)(c1ccc(Cl)c(Cl)c1)c1cnc(SCc2ccc(Cl)c(-c3nnn[nH]3)c2)n1-c1ccc(F)cc1 [5-{2-chloro-5-[({5-[1-(3,4-dichlorophenyl)-1-methylethyl]-1-(4-fluorophenyl)-1H-imidazol-2-yl}thio)methyl]phenyl}-1H-tetrazole] |
| 100 to 1000 | 100 to 1000 | – | – | CC(C)(c1ccc(Cl)c(Cl)c1)c1cnc(SCc2c(F)cc(-c3nnn[nH]3)cc2F)n1-c1ccc(F)cc1 [5-{4-[({5-[1-(3,4-dichlorophenyl)-1-methylethyl]-1-(4-fluorophenyl)-1H-imidazol-2-yl}thio)methyl]-3,5-difluorophenyl}-1H-tetrazole] |
| 100 to 1000 | 100 to 1000 | – | – | CC(C)(c1ccc(Cl)c(Cl)c1)c1cnc(SCc2ccc(-c3nnn[nH]3)cc2F)n1-c1ccc(F)cc1 [5-{4-[({5-[1-(3,4-dichlorophenyl)-1-methylethyl]-1-(4-fluorophenyl)-1H-imidazol-2-yl}thio)methyl]-3-fluorophenyl}-1H-tetrazole] |
| 100 to 1000 | 100 to 1000 | – | – | CC(C)(c1ccc(CO)c(Cl)c1)c1cnc(SCc2ccc(F)cc2Cl)n1-c1ccc(F)cc1 [(2-chloro-4-{1-[2-{[(2-chloro-4-fluorophenyl)methyl]thio}-1-(4-fluorophenyl)-1H-imidazol-5-yl]-1-methylethyl}phenyl)methanol] |
| < 100 | < 100 | – | – | COc1cc(C(C)(C)c2cnc(SCc3c(F)cc(OCC/C=N/NC(=N)N)cc3Cl)n2-c2ccc(F)cc2)ccc1Cl [(2E)-2-(3-{[3-chloro-4-({[5-{1-[4-chloro-3-(methyloxy)phenyl]-1-methylethyl}-1-(4-fluorophenyl)-1H-imidazol-2-yl]thio}methyl)-5-fluorophenyl]oxy}propylidene) hydrazinecarboximidamide] |
| 100 to 1000 | 100 to 1000 | – | – | CC(C)(c1ccc(Cl)c(Cl)c1)c1cnc(SCc2ccc(OCC(=O)O)c(S(N)(=O)=O)c2)n1-c1ccc(F)cc1 [({2-(aminosulfonyl)-4-[({5-[1-(3,4-dichlorophenyl)-1-methylethyl]-1-(4-fluorophenyl)-1H-imidazol-2-yl}thio)methyl]phenyl}oxy)acetic acid] |
| 100 to 1000 | 100 to 1000 | – | – | CC(C)(c1ccc(Cl)c(Cl)c1)c1cnc(SCc2ccc(F)c(OCC(=O)O)c2)n1-c1ccc(F)cc1 [({5-[({5-[1-(3,4-dichlorophenyl)-1-methylethyl]-1-(4-fluorophenyl)-1H-imidazol-2-yl}thio)methyl]-2-fluorophenyl}oxy)acetic acid] |
| < 100 | < 100 | – | – | COc1cc(C(C)(C)c2cnc(SCc3c(F)cc(C(=O)NCS(=O)(=O)O)cc3Cl)n2-c2ccc(F)cc2)ccc1Cl [({[3-chloro-4-({[5-{1-[4-chloro-3-(methyloxy)phenyl]-1-methylethyl}-1-(4-fluorophenyl)-1H-imidazol-2-yl]thio}methyl)-5-fluorophenyl]carbonyl}amino) methanesulfonic acid] |
| < 100 | < 100 | – | – | COc1cc(C(C)(C)c2cnc(SCc3c(F)cc(C(=O)NCS(=O)(=O)O)cc3F)n2-c2ccc(F)cc2)ccc1Cl [({[4-({[5-{1-[4-chloro-3-(methyloxy)phenyl]-1-methylethyl}-1-(4-fluorophenyl)-1H-imidazol-2-yl]thio}methyl)-3,5-difluorophenyl]carbonyl}amino)methanesulfonic acid] |
| < 100 | < 100 | – | – | COc1cc(C(C)(C)c2cnc(SCc3ccc(C(=O)NCS(=O)(=O)O)cc3F)n2-c2ccc(F)cc2)ccc1Cl [({[4-({[5-{1-[4-chloro-3-(methyloxy)phenyl]-1-methylethyl}-1-(4-fluorophenyl)-1H-imidazol-2-yl]thio}methyl)-3-fluorophenyl]carbonyl}amino)methanesulfonic acid] |
| – | – | 100 to 1000 | 100 to 1000 | CC(C)(c1ccc(Cl)c(Cl)c1)c1nnc(SCc2c(F)cc(C(=O)O)cc2F)n1-c1ccc(F)cc1 [Example 48] |
